Bioavailability data for one compound are collected here from ChEMBL document CHEMBL1649513, “Population pharmacokinetics of acyclovir in children and young people with malignancy after administration of intravenous acyclovir or oral valacyclovir” (Antimicrob Agents Chemother, 2009).

Series [1] can be described thus: Bioavailability in children and young patient with malignancy. Format: ADME, organism-based. To be noted: human, in vivo.
Series [2] can be described thus: Bioavailability in immunocompromized children at […], po administered every 12 hrs. Format: ADME, organism-based. The conditions noted are these: human, in vivo.

In general, bioavailability refers to the share of a dose that reaches the circulation, judged against a reference dose that is usually intravenous. A high value points to much systemic uptake.

For `Nc1nc2c(ncn2COCCO)c(=O)[nH]1` [ACYCLOVIR], the bioavailability in series [1] turned out to be 60%; in series [2], 48%.
